In article PMC9501377, “New Diarylamine KV10.1 Inhibitors and Their Anticancer Potential” (Pharmaceutics, 2022):

Target: T1, KV10.1 (Eag1) (Homo sapiens, UniProt O95259)
T1 construct: expressed in transfected cells; host or cells: HEK-293 (stably transfected)
T1 sequence (O95259 1-962 isoform O95259-2): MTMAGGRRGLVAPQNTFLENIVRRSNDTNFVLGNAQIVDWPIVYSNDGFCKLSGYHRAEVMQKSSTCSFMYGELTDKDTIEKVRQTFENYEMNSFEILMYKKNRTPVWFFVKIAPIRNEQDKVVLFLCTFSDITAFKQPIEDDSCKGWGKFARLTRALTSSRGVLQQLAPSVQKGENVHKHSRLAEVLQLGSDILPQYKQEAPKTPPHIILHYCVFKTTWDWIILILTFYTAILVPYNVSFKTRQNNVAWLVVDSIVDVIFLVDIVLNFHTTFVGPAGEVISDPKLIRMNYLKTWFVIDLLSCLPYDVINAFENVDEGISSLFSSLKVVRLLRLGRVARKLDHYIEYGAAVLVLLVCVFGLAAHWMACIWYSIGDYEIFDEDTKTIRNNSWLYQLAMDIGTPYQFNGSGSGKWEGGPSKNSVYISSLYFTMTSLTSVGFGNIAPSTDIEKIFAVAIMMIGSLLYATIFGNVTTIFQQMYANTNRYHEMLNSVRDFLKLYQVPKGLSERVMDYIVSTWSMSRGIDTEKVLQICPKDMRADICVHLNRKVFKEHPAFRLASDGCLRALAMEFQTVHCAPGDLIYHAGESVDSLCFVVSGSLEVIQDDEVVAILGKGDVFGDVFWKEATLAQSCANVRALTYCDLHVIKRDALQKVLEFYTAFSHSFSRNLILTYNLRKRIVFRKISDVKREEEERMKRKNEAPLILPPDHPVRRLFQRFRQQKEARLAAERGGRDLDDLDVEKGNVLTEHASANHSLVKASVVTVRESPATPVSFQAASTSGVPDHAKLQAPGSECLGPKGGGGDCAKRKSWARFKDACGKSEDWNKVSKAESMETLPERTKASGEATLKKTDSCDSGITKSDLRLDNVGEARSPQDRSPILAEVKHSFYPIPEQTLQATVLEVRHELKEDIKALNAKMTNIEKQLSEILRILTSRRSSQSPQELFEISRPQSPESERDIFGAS
Test: Whole-cell patch-clamp on stably transfected HEK-293 cells expressing KV10.1
Assay type: cell-based
Details: 10 μM, HEK-293 cells, patch-clamp, mean ± SEM
Description: For whole-cell patch-clamp measurements, stably transfected HEK-293 cells expressing KV10.1 [26, 27, 28] were grown in DMEM with 10% FCS and 300 µg/mL Zeocin on glass coverslips coated with fibronectin. All experiments were conducted at room temperature under perfusion by gravity with extracellular solution (160 mM NaCl, 2.5 mM KCl, 2 mM CaCl2, 1 mM MgCl2, 10 mM Hepes pH 7.4 with NaOH, 8 mM glucose). Pipettes were made from #1 glass capillaries (WPI) and had 1–3 MΩ resistance. The intracellular solution contained 100 mM KCl, 45 mM N-methyl-D-glucamine, 10 mM 1,2-bis(o-aminophenoxy)ethane-N,N,N′,N′-tetraacetic acid (BAPTA), 10 mM Hepes pH 7.35. Stimulation was applied and data were acquired with an EPC10 Plus amplifier (HEKA Elektronik) controlled with Patch Master software. Compounds were applied with an 8-channel fast solution exchanger (ALA). Compounds were prepared to a stock concentration of 10 mM in DMSO. The control solution contained 0.5% DMSO. Stimuli consisted of 500 ms depolarizations to +40 mV.
All electrophysiological data are presented as means ± SEM of n ≥ 3 independent experiments unless otherwise indicated. Oocyte data were analysed using pClamp Clampfit 10.4 (Molecular Devices, Downingtown, PA, USA) and OriginPro 9 (Originlab, Northampton, MA, USA) or GraphPad Prism 8 software (GraphPad Software, Inc., San Diego, CA, USA). Patch-clamp data analysis was performed using FitMaster (HEKA Electronics), IgorPro (Wavemetrics, Inc., Lake Oswego, OR, USA) and GraphPad Prism 9 (GraphPad Software, Inc., San Diego, CA, USA). The Dunnett test and one-way ANOVA were performed to calculate the significance of the induced inhibition compared to the control (p < 0.05).

| % of Kv10.1 Inhibition at 10 μM (HEK-293 Cells) | Compound |
| --- | --- |
| inactive | O=[N+]([O-])c1cc(C(F)(F)F)ccc1Nc1ccc(OCc2ccccc2)cc1 [Compound 14, N-(4-(Benzyloxy)phenyl)-2-nitro-4-(trifluoromethyl)aniline] |
| 12.6 ± 6.4% | Methyl 2-((4-(2-hydroxy-3-morpholinopropoxy)phenyl)amino)benzoate [Compound 5e] |

Same assay, conditions: HEK293; 1 μM, HEK-293 cells, patch-clamp, mean ± SEM

| inhibition at 1 µM | Compound |
| --- | --- |
| 38.2 ± 1.4% | CCN(CC)CCOc1c(Br)cc(Nc2ccc(C(F)(F)F)cc2[N+](=O)[O-])cc1Br [Compound 17b, 3,5-Dibromo-4-(2-(diethylamino)ethoxy)-N-(2-nitro-4-(trifluoromethyl)phenyl)aniline] |
| 66.5 ± 5.5% | CCN(CC)CCOc1c(Cl)cc(Nc2ccc(C(F)(F)F)cc2[N+](=O)[O-])cc1Cl [Compound 17c, 3,5-Dichloro-4-(2-(diethylamino)ethoxy)-N-(2-nitro-4-(trifluoromethyl)phenyl)aniline] |
| 73.5 ± 0.5% | CN(C)CCOc1c(Br)cc(Nc2ccc(C(F)(F)F)cc2[N+](=O)[O-])cc1Br [Compound 18b, 3,5-Dibromo-4-(2-(dimethylamino)ethoxy)-N-(2-nitro-4-(trifluoromethyl)phenyl)aniline] |
| 28.4 ± 12.1% | CN(C)CCOc1c(Cl)cc(Nc2ccc(C(F)(F)F)cc2[N+](=O)[O-])cc1Cl [Compound 18c, 3,5-Dichloro-4-(2-(dimethylamino)ethoxy)-N-(2-nitro-4-(trifluoromethyl)phenyl)aniline] |

Same assay, conditions: HEK293; 10 μM, HEK-293 cells, patch-clamp, mean ± SEM

| inhibition at 10 µM | Compound |
| --- | --- |
| 4.1 ± 2.6% | COC(=O)c1ccccc1Oc1ccc(OCC(O)CN2CCOCC2)cc1 (centres unmarked) [Compound 5a, Methyl 2-(4-(2-hydroxy-3-morpholinopropoxy)phenoxy)benzoate] |
| 2.9 ± 5.3% | O=[N+]([O-])c1cc(C(F)(F)F)ccc1Oc1ccc(OCC(O)CN2CCOCC2)cc1 (centres unmarked) [Compound 5b, 1-Morpholino-3-(4-(2-nitro-4-(trifluoromethyl)phenoxy)phenoxy)propan-2-ol] |
| 7.5 ± 3.5% | O=C(Nc1ccc(OCC(O)CN2CCOCC2)cc1)c1ccc(C(F)(F)F)cc1[N+](=O)[O-] (centres unmarked) [Compound 5c, N-(4-(2-Hydroxy-3-morpholinopropoxy)phenyl)-2-nitro-4-(trifluoromethyl)benzamide] |
| 2.7 ± 1.2% | COC(=O)c1ccccc1Nc1ccc(OCC(O)CN2CCOCC2)cc1 (centres unmarked) [Compound 5d, Methyl 2-((4-(2-hydroxy-3-morpholinopropoxy)phenyl)amino)benzoate] |
| 18.8 ± 4% | CN(C)CC(O)COc1ccc(Oc2ccc(C(F)(F)F)cc2[N+](=O)[O-])cc1 (centres unmarked) [Compound 6a, 1-(Dimethylamino)-3-(4-(2-nitro-4-(trifluoromethyl)phenoxy)phenoxy)propan-2-ol] |
| 1.7 ± 6% | CN(C)CC(O)COc1ccc(NC(=O)c2ccc(C(F)(F)F)cc2[N+](=O)[O-])cc1 (centres unmarked) [Compound 6b, N-(4-(3-(Dimethylamino)-2-hydroxypropoxy)phenyl)-2-nitro-4-(trifluoromethyl)benzamide] |
| 4.2 ± 5.5% | COC(=O)c1cc(C(F)(F)F)ccc1Nc1ccc(OCC(O)CN(C)C)cc1 (centres unmarked) [Compound 6c, Methyl 2-((4-(3-(dimethylamino)-2-hydroxypropoxy)phenyl)amino)-5-(trifluoromethyl)benzoate] |
| 5.8 ± 5.3% | O=C(O)c1ccccc1Nc1ccc(OCC(O)CN2CCOCC2)cc1 (centres unmarked) [Compound 10a, 2-((4-(2-Hydroxy-3-morpholinopropoxy)phenyl)amino)benzoic acid] |
| -2.1 ± 5.7% | CN(C)CC(O)COc1ccc(Nc2ccc(C(F)(F)F)cc2C(=O)O)cc1 (centres unmarked) [Compound 10b, 2-((4-(3-(Dimethylamino)-2-hydroxypropoxy)phenyl)amino)-5-(trifluoromethyl)benzoic acid] |
| 62.4 ± 3.9% | O=[N+]([O-])c1cc(C(F)(F)F)ccc1Nc1ccc(OCCN2CCOCC2)cc1 [Compound 13, N-(4-(2-Morpholinoethoxy)phenyl)-2-nitro-4-(trifluoromethyl)aniline] |
| 3.3 ± 1.7% | O=[N+]([O-])c1cc(C(F)(F)F)ccc1Nc1ccc(OCc2ccccc2)cc1 [Compound 14, N-(4-(Benzyloxy)phenyl)-2-nitro-4-(trifluoromethyl)aniline] |
| 66.6 ± 4.3% | CNCC(O)COc1ccc(Nc2ccc(C(F)(F)F)cc2[N+](=O)[O-])cc1 (centres unmarked) [Compound 15, 1-(Methylamino)-3-(4-((2-nitro-4-(trifluoromethyl)phenyl)amino)phenoxy)propan-2-ol] |
| 86.2 ± 6.8% | CCN(CC)CCOc1ccc(Nc2ccc(C(F)(F)F)cc2[N+](=O)[O-])cc1 [Compound 17a, N-(4-(2-(Diethylamino)ethoxy)phenyl)-2-nitro-4-(trifluoromethyl)aniline] |
| 81.4 ± 5.6% | CN(C)CCOc1ccc(Nc2ccc(C(F)(F)F)cc2[N+](=O)[O-])cc1 [Compound 18a, N-(4-(2-(Dimethylamino)ethoxy)phenyl)-2-nitro-4-(trifluoromethyl)aniline] |
| 68.4 ± 14.8% | O=[N+]([O-])c1cc(C(F)(F)F)ccc1Nc1ccc(OCCN2CCCC2)cc1 [Compound 19, 2-Nitro-N-(4-(2-(pyrrolidin-1-yl)ethoxy)phenyl)-4-(trifluoromethyl)aniline] |
| 65 ± 6% | O=[N+]([O-])c1cc(C(F)(F)F)ccc1Nc1ccc(OCCN2CCCCC2)cc1 [Compound 20, 2-Nitro-N-(4-(2-(piperidin-1-yl)ethoxy)phenyl)-4-(trifluoromethyl)aniline] |
| 71 ± 4.12% | O=[N+]([O-])c1cc(C(F)(F)F)ccc1Nc1ccc(OCCN2CCCCCC2)cc1 [Compound 21, N-(4-(2-(Azepan-1-yl)ethoxy)phenyl)-2-nitro-4-(trifluoromethyl)aniline] |

| Compound | inhibition at 10 µM |
| --- | --- |
| O=[N+]([O-])c1ccc(Nc2ccc(OCC(O)CN3CCOCC3)cc2)c([N+](=O)[O-])c1 (centres unmarked) [Compound 5f, 1-(4-((2,4-Dinitrophenyl)amino)phenoxy)-3-morpholinopropan-2-ol] | 61.7 ± 9.1% |
| CN(C)CC(O)COc1ccc(Nc2ccc([N+](=O)[O-])cc2[N+](=O)[O-])cc1 (centres unmarked) [Compound 6d, 1-(Dimethylamino)-3-(4-((2,4-dinitrophenyl)amino)phenoxy)propan-2-ol] | 61.9 ± 9% |

Same assay, conditions: HEK293; 50 μM, HEK-293 cells, patch-clamp, mean ± SEM

| inhibition at 50 µM | Compound |
| --- | --- |
| 21.8 ± 4.4% | O=C(Cc1ccc(Cl)c(Cl)c1)NC1CCN(CC(O)COc2ccc(Nc3ccc(C(F)(F)F)cc3[N+](=O)[O-])cc2)CC1 (centres unmarked) [Compound 16d, 2-(3,4-Dichlorophenyl)-N-(1-(2-hydroxy-3-(4-((2-nitro-4-(trifluoromethyl)phenyl)amino)phenoxy)propyl)piperidin-4-yl)acetamide] |

Same assay, conditions: whole-cell patch-clamp, dose–response fit

| IC50 | Compound |
| --- | --- |
| 0.568 µM | CCN(CC)CCOc1ccc(Nc2ccc(C(F)(F)F)cc2[N+](=O)[O-])cc1 [Compound 17a, N-(4-(2-(Diethylamino)ethoxy)phenyl)-2-nitro-4-(trifluoromethyl)aniline] |
| 0.892 µM | CN(C)CCOc1ccc(Nc2ccc(C(F)(F)F)cc2[N+](=O)[O-])cc1 [Compound 18a, N-(4-(2-(Dimethylamino)ethoxy)phenyl)-2-nitro-4-(trifluoromethyl)aniline] |
| 0.216 µM | CN(C)CCOc1c(Br)cc(Nc2ccc(C(F)(F)F)cc2[N+](=O)[O-])cc1Br [Compound 18b, 3,5-Dibromo-4-(2-(dimethylamino)ethoxy)-N-(2-nitro-4-(trifluoromethyl)phenyl)aniline] |
